{
  "source": "paper PMC12558477",
  "about": "“Flavin affinity for the reductase HpaC differentially sensitizes Neisseria gonorrhoeae during Type IV pilus-dependent killing” (PLOS Pathogens, 2025)",
  "molecular_target": "T1, HpaC (Gc HpaC, FA1090 HpaC) (Neisseria gonorrhoeae, UniProt Q5FAG3)",
  "T1 construct": "gene NGO_0059; His6-tagged full-length HpaC from pET28a, expressed in E. coli BL21(DE3); 166 residues; co-purifies with FAD; oligomer not measured (modelled on TftC homodimer)",
  "T1 sequence (Q5FAG3 entry or part of it)": "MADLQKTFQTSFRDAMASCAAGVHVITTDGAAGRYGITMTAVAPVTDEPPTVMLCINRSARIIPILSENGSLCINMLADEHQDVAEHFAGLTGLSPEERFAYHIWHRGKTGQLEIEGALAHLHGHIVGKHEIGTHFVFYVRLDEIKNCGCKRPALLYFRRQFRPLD",
  "test": "FAD released from purified protein by heat denaturation, coupled-enzyme fluorescent probe kit",
  "assay_type": "binding",
  "conditions": "0.5 µM protein, with and without 95 °C for 5 min; room temperature; co-purified FAD",
  "data": [
    {"molecule": "Cc1cc2nc3c(=O)[nH]c(=O)nc-3n(C[C@H](O)[C@H](O)[C@H](O)COP(=O)(O)OP(=O)(O)OC[C@H]3O[C@@H](n4cnc5c(N)ncnc54)[C@H](O)[C@@H]3O)c2cc1C", "note": "[FAD]", "values": [
      {"measurement": "FAD released from purified protein by heat denaturation, coupled-enzyme fluoresc", "result": "We purified Gc HpaC and noticed an FAD signal in the absence of heat"}
    ]}
  ]
}
